This assay has as its system P388 leukemia ip, CD2F1 mice, survival T/C. The assay can be described thus: NCI In Vivo Anticancer Drug Screen. Data for tumor model P388 Leukemia (intraperitoneal) in CD2F1 (CDF1) mice. The note with it: endpoint: median survival time, higher = longer survival. The method in brief:
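Mice carrying the transplanted tumor received test compound or vehicle. Survival was recorded in each group, and the value is the treated-group measurement divided by that of the vehicle-treated control group.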

Structures are written as SMILES. Where “and” joins values, the source holds several entries; their conditions need not be identical. Identical values can stand only once. Inconclusive results and toxic doses are left out.

For the compound `COc1cc([C@@H]2c3cc4c(cc3[C@@H](OC3OC5CO[C@@H](c6cccs6)OC5C(O)C3O)[C@H]3COC(=O)[C@H]23)OCO4)cc(OC)c1O` (some centres not stated), the T/C was 170 % of control (dose: 0.25 mg/kg/injection, schedule: Q01DX009 (ip), vehicle: saline); 208 % of control (dose: 0.5 mg/kg/injection, schedule: Q01DX009 (ip), vehicle: saline); 100 % of control (dose: 0.75 mg/kg/injection, schedule: Q01DX005 (iv), vehicle: saline); 261 % of control (dose: 1.0 mg/kg/injection, schedule: Q01DX009 (ip), vehicle: saline); 104 % of control (dose: 1.5 mg/kg/injection, schedule: Q01DX005 (iv), vehicle: saline); 155 % of control (dose: 2.0 mg/kg/injection, schedule: Q01DX005 (ip), vehicle: saline). Moreover, the T/C reads like this: (dose: 2.0 mg/kg/injection, schedule: Q01DX009 (ip), vehicle: saline) 157 % of control and 449 % of control; (dose: 3.0 mg/kg/injection, schedule: Q01DX005 (iv), vehicle: saline) 99 % of control; (dose: 3.24 mg/kg/injection, schedule: Q04DX003 (ip), vehicle: clinical formulation) 225 % of control; (dose: 3.89 mg/kg/injection, schedule: Q04DX003 (ip), vehicle: saline) 166 % of control; (dose: 4.0 mg/kg/injection, schedule: Q01DX005 (ip), vehicle: saline) 166 % of control; (dose: 5.4 mg/kg/injection, schedule: Q04DX003 (ip), vehicle: clinical formulation) 239 % of control. The T/C was 167 % of control (dose: 6.0 mg/kg/injection, schedule: Q01DX005 (ip), vehicle: saline); 116 % of control (dose: 6.0 mg/kg/injection, schedule: Q01DX005 (iv), vehicle: saline); 170 % of control (dose: 6.48 mg/kg/injection, schedule: Q04DX003 (ip), vehicle: clinical formulation); 163 % of control (dose: 6.48 mg/kg/injection, schedule: Q04DX003 (ip), vehicle: saline); 175 % of control (dose: 7.78 mg/kg/injection, schedule: Q04DX003 (ip), vehicle: saline); 222 % of control (dose: 8.0 mg/kg/injection, schedule: Q01DX005 (ip), vehicle: saline). For the same compound, the T/C (dose: 9.0 mg/kg/injection, schedule: Q04DX003 (ip), vehicle: clinical formulation) is 371 % of control; the T/C (dose: 10.8 mg/kg/injection, schedule: Q04DX003 (ip), vehicle: clinical formulation) was 203 % of control; the T/C (dose: 10.8 mg/kg/injection, schedule: Q04DX003 (ip), vehicle: saline) was 211 % of control; the T/C (dose: 13.0 mg/kg/injection, schedule: Q04DX002 (ip), vehicle: saline) is 168 % of control; the T/C (dose: 13.0 mg/kg/injection, schedule: Q04DX003 (ip), vehicle: saline) is 194 % of control; the T/C (dose: 15.0 mg/kg/injection, schedule: Q04DX003 (ip), vehicle: clinical formulation) was 371 % of control. Moreover, the T/C reads like this: (dose: 16.0 mg/kg/injection, schedule: Q01DX005 (ip), vehicle: saline) 206 % of control; (dose: 18.0 mg/kg/injection, schedule: Q04DX003 (ip), vehicle: clinical formulation) 252 % of control; (dose: 18.0 mg/kg/injection, schedule: Q04DX003 (ip), vehicle: saline) 211 % of control; (dose: 21.6 mg/kg/injection, schedule: Q04DX002 (ip), vehicle: saline) 171 % of control; (dose: 21.6 mg/kg/injection, schedule: Q04DX003 (ip), vehicle: saline) 203 % of control; (dose: 25.0 mg/kg/injection, schedule: Q04DX003 (ip), vehicle: clinical formulation) 287 % of control. The T/C is, setting by setting: (dose: 30.0 mg/kg/injection, schedule: Q04DX003 (ip), vehicle: clinical formulation) 211 % of control; (dose: 30.0 mg/kg/injection, schedule: Q04DX003 (ip), vehicle: saline) 257 % of control; (dose: 36.0 mg/kg/injection, schedule: Q04DX003 (ip), vehicle: saline) 296 % of control; (dose: 60.0 mg/kg/injection, schedule: Q04DX002 (ip), vehicle: saline) 198 % of control; (dose: 60.0 mg/kg/injection, schedule: Q04DX003 (ip), vehicle: saline) 296 % of control; (dose: 100.0 mg/kg/injection, schedule: Q04DX002 (ip), vehicle: saline) 217 % of control.
Consider `NC(CCCCCCCCCCCCC(N)C(=O)c1ccccc1)C(=O)c1ccccc1` (configuration not stated), for which the T/C runs as follows: (dose: 60.0 mg/kg/injection, schedule: Q01DX005 (ip), vehicle: saline with Tween-80) 101 % of control; (dose: 120.0 mg/kg/injection, schedule: Q01DX005 (ip), vehicle: saline with Tween-80) 93 % of control; (dose: 240.0 mg/kg/injection, schedule: Q01DX005 (ip), vehicle: saline with Tween-80) 93 % of control.
Take `COc1ccc(C2C3=C(CCC(CN(C)C)C3=O)OC3=C2C(=O)C(CN(C)C)CC3)cc1` (configuration not stated): the T/C is, setting by setting: (dose: 60.0 mg/kg/injection, schedule: Q01DX005 (ip), vehicle: saline) 102 % of control; (dose: 120.0 mg/kg/injection, schedule: Q01DX005 (ip), vehicle: saline) 102 % of control.
On to `CCc1cccc(C)c1NC(=O)C(=O)C(C#N)c1ccc(C)cc1` (configuration not stated), for which the T/C was 99 % of control (dose: 50.0 mg/kg/injection, schedule: Q01DX005 (ip), vehicle: saline with Tween-80); 93 % of control (dose: 100.0 mg/kg/injection, schedule: Q01DX005 (ip), vehicle: saline with Tween-80); 103 % of control (dose: 200.0 mg/kg/injection, schedule: Q01DX005 (ip), vehicle: saline with Tween-80).
For `COC1OC(=O)C(Cl)=C1N=[N+]=[N-]` (configuration not stated), the T/C runs as follows: (dose: 15.0 mg/kg/injection, schedule: Q01DX005 (ip), vehicle: Klucel (hydroxypropylcellulose) (HPC)) 105 % of control; (dose: 30.0 mg/kg/injection, schedule: Q01DX005 (ip), vehicle: Klucel (hydroxypropylcellulose) (HPC)) 102 % of control; (dose: 60.0 mg/kg/injection, schedule: Q01DX005 (ip), vehicle: Klucel (hydroxypropylcellulose) (HPC)) 109 % of control.

The record behind these values is PubChem BioAssay AID330 (DTP/NCI, 2004).
